# Counter-ions that a name gives are not always drawn.
# Target: T1, ERR1 (also known as ERR-α or ERR-1) (Homo sapiens, UniProt P11474)
# T1 construct: the ^6His-tagged-ERR1 LBD
# T1 sequence (P11474 193-421 limits assumed): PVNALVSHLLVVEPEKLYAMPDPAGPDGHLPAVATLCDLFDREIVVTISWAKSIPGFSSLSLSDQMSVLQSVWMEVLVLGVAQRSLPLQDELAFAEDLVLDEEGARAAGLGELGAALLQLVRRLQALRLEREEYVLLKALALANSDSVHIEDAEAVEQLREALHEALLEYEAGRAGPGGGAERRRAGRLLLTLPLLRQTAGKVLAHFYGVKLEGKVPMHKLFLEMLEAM
# Assay: TR-FRET assay: disruption of co-activator peptide binding to ERR1 LBD
# Format: biochemical
# Conditions: 6His-tagged ERR1 LBD 6 nM, GST-SRC-2 peptide 6 nM, 25° C., 4-18 hours; average of 3 independent experiments
# Description: Time-Resolved Fluorescence Resonance Energy Transfer (TR-FRET) experiments were performed to examine the functional response of ERR1 (also known as ERR-α or ERR-1) ligands. The TR-FRET assay described herein relied on the conformation of ERR1 for binding to a co-activator peptide: when a test compound binds to ERR1 and alters its conformation, it can disrupt the binding of the co-activator peptide. The components of this homogeneous secondary assay included: the ^6His-tagged-ERR1 LBD, a GST-labeled-hSRC2 co-activator polypeptide and a fluorescent donor/acceptor pair from CIS bio international htrf/bioassays (Bedford, Mass.) using both an α-GST Europium Cryptate (Eu) label and an α^6His-XL665 (allophycocyanin) fluorophore.
# For TR-FRET measurements, the reaction was buffered in 25 mM Tris pH 8, 2.5 mM Hepes, 20 mM KCl, 1 mM DTT, and 0.05 mg/mL BSA (-lipids). […] Reactions were allowed to reach equilibrium at 25° C. for 4-18 hours before collecting data on the Analyst from LJL Biosystems (Molecular Devices Sunnyvale, Calif.). […] Dose response curves were fitted using a hyperbolic equation and the data reported is the average of 3 independent experiments.
row,Compound,EC50 [nM]
1,"COc1cc(/C=C2\SC(N(C)CC(O)CO)=NC2=O)ccc1Oc1ccc(C#N)cc1Cl (stereo not drawn) [Example 65, 3-Chloro-4-(4-{2-[(2,3-dihydroxy-propyl)-methyl-amino]-4-oxo-4H-thiazol-5-ylidenemethyl}-2-methoxy-phenoxy)-benzonitrile]",89
2,"N#Cc1ccc(Oc2ccc(/C=C3\SC(NC4CCN(CCO)CC4)=NC3=O)cc2F)c(C(F)(F)F)c1 [Example 112, 4-(2-Fluoro-4-{2-[1-(2-hydroxy-ethyl)-piperidin-4-ylamino]-4-oxo-4H-thiazol-5-ylidenemethyl}-phenoxy)-3-trifluoromethyl-benzonitrile]",26
3,"COc1cc(/C=C2\SC(N3CCNC(=O)C3)=NC2=O)ccc1Oc1ccc(C#N)cc1Cl [Example 64, 3-Chloro-4-{2-methoxy-4-[4-oxo-2-(3-oxo-piperazin-1-yl)-4H-thiazol-5-ylidenemethyl]-phenoxy}-benzonitrile]",44
4,"COc1cc(/C=C2\SC(NCCn3ccnc3)=NC2=O)ccc1Oc1ccc(C#N)cc1C(F)(F)F [Example 70, 4-{4-[2-(2-Imidazol-1-yl-ethylamino)-4-oxo-4H-thiazol-5-ylidenemethyl]-2-methoxy-phenoxy}-3-trifluoromethyl-benzonitrile]",24
5,"N#Cc1ccc(Oc2ccc(/C=C3\SC(NCCCN4CCNC(=O)C4)=NC3=O)cc2F)c(C(F)(F)F)c1 [Example 100, 4-(2-Fluoro-4-{4-oxo-2-[3-(3-oxo-piperazin-1-yl)-propylamino]-4H-thiazol-5-ylidenemethyl}-phenoxy)-3-trifluoromethyl-benzonitrile]",31
6,"COc1cc(/C=C2\SC(NCCn3cccn3)=NC2=O)ccc1Oc1ccc(C#N)cc1C(F)(F)F [Example 30, 4-{2-Methoxy-4-[4-oxo-2-(2-pyrazol-1-yl-ethylamino)-4H-thiazol-5-ylidenemethyl]-phenoxy}-3-trifluoromethyl-benzonitrile]",47
7,"COC(=O)C1CCN(C2=NC(=O)/C(=C/c3ccc(Oc4ccc(C#N)cc4C(F)(F)F)c(OC)c3)S2)CC1 [Example 79, 1-{5-[4-(4-Cyano-2-trifluoromethyl-phenoxy)-3-methoxy-benzylidene]-4-oxo-4,5-dihydro-thiazol-2-yl}-piperidine-4-carboxylic acid methyl ester]",25
8,"COc1cc(/C=C2\SC(NCCN)=NC2=O)ccc1Oc1ccc(C#N)cc1C(F)(F)F [Example 87, 4-{4-[2-(2-Amino-ethylamino)-4-oxo-4H-thiazol-5-ylidenemethyl]-2-methoxy-phenoxy}-3-trifluoromethyl-benzonitrile HCl salt]",22
9,"COC(=O)CCCNC1=NC(=O)/C(=C/c2ccc(Oc3ccc(C#N)cc3C(F)(F)F)c(OC)c2)S1 [Example 82, 4-{5-[4-(4-Cyano-2-trifluoromethyl-phenoxy)-3-methoxy-benzylidene]-4-oxo-4,5-dihydro-thiazol-2-ylamino}-butyric acid methyl ester]",55
10,"N#Cc1ccc(Oc2ccc(/C=C3\SC(NCC(F)F)=NC3=O)cc2F)c(C(F)(F)F)c1 [Example 97, 4-{4-[2-(2,2-Difluoro-ethylamino)-4-oxo-4H-thiazol-5-ylidenemethyl]-2-fluoro-phenoxy}-3-trifluoromethyl-benzonitrile]",40
11,"N#Cc1ccc(Oc2ccc(/C=C3\SC(N4CC(C(=O)O)C4)=NC3=O)cc2F)c(C(F)(F)F)c1 [Example 116, 1-{5-[4-(4-Cyano-2-trifluoromethyl-phenoxy)-3-fluoro-benzylidene]-4-oxo-4,5-dihydro-thiazol-2-yl}-azetidine-3-carboxylic acid]",34
12,"COc1cc(/C=C2\SC(NCc3cccnc3)=NC2=O)ccc1Oc1ccc(C#N)cc1C(F)(F)F [Compound 19, 4-(2-Methoxy-4-{4-oxo-2-[(pyridin-3-ylmethyl)-amino]-4H-thiazol-5-ylidenemethyl}-phenoxy)-3-trifluoromethyl-benzonitrile]",18

# The next lines start with the values.
row,EC50 [nM],Compound
1,8,"COc1cc(/C=C2\SC(N3CCN(C)C(=O)C3)=NC2=O)ccc1Oc1ccc(C#N)cc1C(F)(F)F [Example 94, 4-{2-Methoxy-4-[2-(4-methyl-3-oxo-piperazin-1-yl)-4-oxo-4H-thiazol-5-ylidenemethyl]-phenoxy}-3-trifluoromethyl-benzonitrile]"
2,13,"COc1cc(/C=C2\SC(NCCC(=O)N3CCOCC3)=NC2=O)ccc1Oc1ccc(C#N)cc1C(F)(F)F [Example 73, 4-{2-Methoxy-4-[2-(3-morpholin-4-yl-3-oxo-propylamino)-4-oxo-4H-thiazol-5-ylidenemethyl]-phenoxy}-3-trifluoromethyl-benzonitrile]"
3,10,"N#Cc1ccc(Oc2ccc(/C=C3\SC(NCCCN4CCOCC4)=NC3=O)cc2F)c(C(F)(F)F)c1 [Example 49, 4-{2-Fluoro-4-[2-(3-morpholin-4-yl-propylamino)-4-oxo-4H-thiazol-5-ylidenemethyl]-phenoxy}-3-trifluoromethyl-benzonitrile]"
4,11,"COc1cc(/C=C2\SC(N3CCN(C)CC3)=NC2=O)ccc1Oc1ccc(C#N)cc1C(F)(F)F [Compound 7, 4-{2-Methoxy-4-[2-(4-methyl-piperazin-1-yl)-4-oxo-4H-thiazol-5-ylidenemethyl]-phenoxy}-3-trifluoromethyl-benzonitrile]"
5,18,"COc1cc(/C=C2\SC(NCCN3CCCCC3)=NC2=O)ccc1Oc1ccc(C#N)cc1C(F)(F)F [Compound 25, 4-{2-Methoxy-4-[4-oxo-2-(2-piperidin-1-yl-ethylamino)-4H-thiazol-5-ylidenemethyl]-phenoxy}-3-trifluoromethyl-benzonitrile]"
6,14,"COc1cc(/C=C2\SC(N3CCC(C(N)=O)CC3)=NC2=O)ccc1Oc1ccc(C#N)cc1C(F)(F)F [Example 78, 1-{5-[4-(4-Cyano-2-trifluoromethyl-phenoxy)-3-methoxy-benzylidene]-4-oxo-4,5-dihydro-thiazol-2-yl}-piperidine-4-carboxylic acid amide]"
7,5,"COc1cc(/C=C2\SC(NCc3nnn[nH]3)=NC2=O)ccc1Oc1ccc(C#N)cc1C(F)(F)F [Example 107, 4-(2-Methoxy-4-{4-oxo-2-[(1H-tetrazol-5-ylmethyl)-amino]-4H-thiazol-5-ylidenemethyl}-phenoxy)-3-trifluoromethyl-benzonitrile]"
8,16,"CCOc1cc(/C=C2\SC(N3CC(C(=O)O)C3)=NC2=O)ccc1Oc1ccc(C#N)cc1C(F)(F)F [Example 55, 1-{5-[4-(4-Cyano-2-trifluoromethyl-phenoxy)-3-ethoxy-benzylidene]-4-oxo-4,5-dihydro-thiazol-2-yl}-azetidine-3-carboxylic acid]"
9,1,"COc1cc(/C=C2\SC(N3CCNC(=O)C3)=NC2=O)ccc1Oc1ccc(Cl)cc1C(F)(F)F [Example 61, 4-{5-[4-(4-Chloro-2-trifluoromethyl-phenoxy)-3-methoxy-benzylidene]-4-oxo-4,5-dihydro-thiazol-2-yl}-piperazin-2-one]"
10,3,"COc1cc(/C=C2\SC(N(C)CC(O)CO)=NC2=O)ccc1Oc1ccc(Cl)cc1C(F)(F)F (stereo not drawn) [Example 62, 5-[4-(4-Chloro-2-trifluoromethyl-phenoxy)-3-methoxy-benzylidene]-2-[(2,3-dihydroxy-propyl)-methyl-amino]-thiazol-4-one]"
11,16,"COc1cc(/C=C2\SC(NCc3ccncc3)=NC2=O)ccc1Oc1ccc(C#N)cc1C(F)(F)F [Compound 24, 4-(2-Methoxy-4-{4-oxo-2-[(pyridin-4-ylmethyl)-amino]-4H-thiazol-5-ylidenemethyl}-phenoxy)-3-trifluoromethyl-benzonitrile]"
12,10,"COc1cc(/C=C2\SC(N3CC(C(=O)O)C3)=NC2=O)ccc1Oc1ccccc1C(F)(F)F [Example 119, 1-{5-[3-Methoxy-4-(2-trifluoromethyl-phenoxy)-benzylidene]-4-oxo-4,5-dihydro-thiazol-2-yl}-azetidine-3-carboxylic acid]"
13,7,"COc1cc(/C=C2\SC(NCCc3ccncc3)=NC2=O)ccc1Oc1ccc(C#N)cc1C(F)(F)F [Example 28, 4-{2-Methoxy-4-[4-oxo-2-(2-pyridin-4-yl-ethylamino)-4H-thiazol-5-ylidenemethyl]-phenoxy}-3-trifluoromethyl-benzonitrile]"
14,16,"COc1cc(/C=C2\SC(NCCn3cncn3)=NC2=O)ccc1Oc1ccc(C#N)cc1C(F)(F)F [Example 72, 4-{2-Methoxy-4-[4-oxo-2-(2-[1,2,4]triazol-1-yl-ethylamino)-4H-thiazol-5-ylidenemethyl]-phenoxy}-3-trifluoromethyl-benzonitrile]"
15,9,"CN(C)CCCNC1=NC(=O)/C(=C/c2ccc(Oc3ccc(C#N)cc3C(F)(F)F)c(F)c2)S1 [Example 48, 4-{4-[2-(3-Dimethylamino-propylamino)-4-oxo-4H-thiazol-5-ylidenemethyl]-2-fluoro-phenoxy}-3-trifluoromethyl-benzonitrile]"
